# Assay results published in PMC11939078, “TAK-994 mechanistic investigation into drug-induced liver injury” (Toxicological Sciences, 2025).
# Where two headings read alike, the source gives them in different places.
# Key:
# cynomolgus monkeys = experiment: Monkey 39-week oral gavage toxicity study; type: in vivo, cynomolgus monkey; details: for Histopathological Liver Findings / ALT / AST / GLDH: monkey 39-week; for ALT / AST / GLDH: mean (SD)
# Excerpt: (§1) TAK-994 performed well in tiered safety screening assays, with wide margins between in vitro IC50 and the predicted efficacious exposures (Table 1). […] Based on the safety profiles observed in these animal studies, TAK-994 progressed into phase I clinical trials.
# ^bAll dose levels had 4 animals per sex. No statistical difference was observed between the TAK-994 and control groups.
# [1] = Plasma exposure in NT1 patients; type: in vivo, human
# patients with narcolepsy [2] = experiment: Phase II studies TAK-994-1501 and TAK-994-1504
# HepG2 = experiment: Mito Stress Test (Seahorse, ECAR and OCR); type: cell-based, human; details: 3, 10, 30, and 100 μM
# Hepatocyte spheroids = experiment: Hepatocyte spheroid (monoculture, no nonparenchymal cells) cytotoxicity, cellular ATP; type: cell-based, human
# Protocol: Toxicology of TAK-994 was assessed using lnSphero’s 3D lnSight Human Liver models, based on N-acetyl-L-cysteine causality assay, glutathione depletion assay, and lipopolysaccharide (LPS)-sensitization assay. Hepatotoxicity was assessed in 7- and 14-day mono and co-culture models, in which cells were exposed to TAK-994 (0.1, 0.3, 1, 3.16, 10, 31.6, or 100 μM) […].
# The test system was Human 3D InSight Liver Models, production ID hLiMT_589, cryopreserved primary human hepatocytes (Lot IPDH_18; single donor) in monoculture or in co-culture with cryopreserved primary human nonparenchymal cells (Lot IPHN_17; single donor). Human liver microtissues are composed of roughly 1000 hepatocytes and 1000 non-parenchymal live cells. Non-parenchymal liver cell fractions are expected to be composed of Kupffer cells and liver endothelial cells however, these were not identified.
# Mono and co-culture model cells were exposed to TAK-994 (0.1, 0.3, 1, 3.16, 10, 31.6, or 100 μM in 0.5% DMSO) for 7 days (TAK-994 administered on Days 0 and 4) or 14 days (TAK-994 administered on Days 0, 5, and 9). Six replicates were tested for each condition. The vehicle control was 0.5% DMSO, and the positive control was chlorpromazine (0.1, 0.3, 1, 3.16, 10, 31.6, or 100 μM in DMSO). Cellular ATP content was measured in the cell lysate on Days 7 or 14 of treatment. LDH release was measured in the cell supernatant on Days 4 and 7 or on Days 5, 9, and 14 and normalized to lysed controls.
# (§2) Intracellular ATP content in model lysates was measured with the CellTiter-Glo® 2.0 Cell Viability Assay (Catalogue No. G9243, Promega). The Bioluminescent LDH Release Toxicity Assay Kit (Catalogue No. J2380, Promega) was used to assess extracellular LDH release and normalized to lysed controls. ATP, LDH, GSH, and triglycerides were measured according to internal technical operating procedures.
# human liver microtissues = experiment: LPS-sensitization assay in liver microtissues; type: cell-based; details: for IC50: cellular ATP on Day 14
# Protocol: Six replicates were tested for each condition. […] Cellular ATP content was measured in the cell lysate on Day 14 of treatment. LDH release was measured on Days 5, 9, and 14 in the cell supernatant and normalized to lysed controls.
# as §2
# Rat = Rat 26-week oral gavage toxicity study; type: in vivo; details: for Histopathological Liver Findings / ALT / AST / GLDH: rat 26-week; for ALT / AST / GLDH: mean (SD)
# Excerpt: as §1
# ^aAll dose levels had 15 animals per sex. No statistical difference was observed between the TAK-994 and control groups.
# patients with narcolepsy [3] = test system: patients with narcolepsy; set-up: method as in Dauvilliers et al. 2023; details: 30, 90 or 180 mg twice daily, 8 wk; ref Dauvilliers et al. 2023; cited from earlier work
# participants = experiment: Phase I first-in-human study TAK-994-1001, safety; type: in vivo
# Excerpt: TAK-994 was considered to be well tolerated in phase I studies. […] Of 121 participants, 1 subject discontinued due to elevated alanine aminotransferase (ALT) with no other liver enzyme elevations. This event was considered mild in intensity and the participant recovered within 2 wk. No other clinically significant liver enzyme elevations were reported in phase I studies.
compound,measurement,setting,value
CC(C)(O)C(=O)N1CC[C@H](NS(C)(=O)=O)[C@@H]1Cc1cccc(-c2cc(F)cc(F)c2)c1F.CC(C)(O)C(=O)N1CC[C@H](NS(C)(=O)=O)[C@@H]1Cc1cccc(-c2cc(F)cc(F)c2)c1F.O.O.O [TAK-994],"adverse liver findings, chronic dose toxicity study","cynomolgus monkeys; cynomolgus monkeys, 9-mo, up to the high dose tested of 1,000 mg/kg",no adverse liver findings
same,Histopathological Liver Findings,"cynomolgus monkeys; female, 60 mg/kg",No adverse findings
same,ALT,"cynomolgus monkeys; female, 60 mg/kg",35 (9) IU/L
same,AST,"cynomolgus monkeys; female, 60 mg/kg",31 (6) IU/L
same,GLDH,"cynomolgus monkeys; female, 60 mg/kg",11 (2) IU/L
same,Histopathological Liver Findings,"cynomolgus monkeys; female, 200 mg/kg",No adverse findings
same,ALT,"cynomolgus monkeys; female, 200 mg/kg",28 (9) IU/L
same,AST,"cynomolgus monkeys; female, 200 mg/kg",27 (12) IU/L
same,GLDH,"cynomolgus monkeys; female, 200 mg/kg",11 (1) IU/L
same,Histopathological Liver Findings,"cynomolgus monkeys; female, 1000 mg/kg",No adverse findings
same,ALT,"cynomolgus monkeys; female, 1000 mg/kg",34 (10) IU/L
same,AST,"cynomolgus monkeys; female, 1000 mg/kg",24 (5) IU/L
same,GLDH,"cynomolgus monkeys; female, 1000 mg/kg",12 (1) IU/L
same,Histopathological Liver Findings,"cynomolgus monkeys; male, 60 mg/kg",No adverse findings
same,ALT,"cynomolgus monkeys; male, 60 mg/kg",42 (20) IU/L
same,AST,"cynomolgus monkeys; male, 60 mg/kg",30 (12) IU/L
same,GLDH,"cynomolgus monkeys; male, 60 mg/kg",12 (3) IU/L
same,Histopathological Liver Findings,"cynomolgus monkeys; male, 200 mg/kg",No adverse findings
same,ALT,"cynomolgus monkeys; male, 200 mg/kg",32 (2) IU/L
same,AST,"cynomolgus monkeys; male, 200 mg/kg",23 (7) IU/L
same,GLDH,"cynomolgus monkeys; male, 200 mg/kg",13 (1) IU/L
same,Histopathological Liver Findings,"cynomolgus monkeys; male, 1000 mg/kg",No adverse findings
same,ALT,"cynomolgus monkeys; male, 1000 mg/kg",33 (9) IU/L
same,AST,"cynomolgus monkeys; male, 1000 mg/kg",22 (4) IU/L
same,GLDH,"cynomolgus monkeys; male, 1000 mg/kg",13 (3) IU/L
same,"AUC24, ss in NT1 patients",[1]; 30 mg BID,"2,920 h*nM"
same,Cmax,[1]; 30 mg BID,408 nM
same,"AUC24, ss in NT1 patients",[1]; 90 mg BID,"8,870 h*nM"
same,Cmax,[1]; 90 mg BID,948 nM
same,"AUC24, ss in NT1 patients",[1]; 180 mg BID,"14,800 h*nM"
same,Cmax,[1]; 180 mg BID,1640 nM
same,subjects who met discontinuation criteria due to increases in liver transaminases,patients with narcolepsy [2]; 90- and 180-mg BID treatment groups,8
same,"cases that satisfied Hy's Law criteria, diagnosed as DILI",patients with narcolepsy [2]; 90 and 180 mg dose groups,3
same,changes to mitochondrial respiration (media acidification and oxygen consumption rate),HepG2,no TAK-994-induced changes to mitochondrial respiration
same,loss of cellular ATP,"Hepatocyte spheroids; 100 µM TAK-994, absence of nonparenchymal cells",~50%
same,IC50,"Hepatocyte spheroids; cellular ATP, read-out: IC50, hepatocyte spheroids (Fig. 2B)",> 100 µM
same,sensitization of liver microtissues by LPS (innate immune activation),human liver microtissues,no direct innate immune-mediated toxicity was observed
same,IC50,"human liver microtissues; read-out: IC50, liver microtissues + LPS (Fig. 5A)",> 100 µM
same,IC50,"human liver microtissues; read-out: IC50, liver microtissues without LPS (Fig. 5A)",> 100 µM
same,Histopathological Liver Findings,"Rat; female, 50 mg/kg",No adverse findings
same,ALT,"Rat; female, 50 mg/kg",35 (12) IU/L
same,AST,"Rat; female, 50 mg/kg",64 (38) IU/L
same,GLDH,"Rat; female, 50 mg/kg",41 (78) IU/L
same,Histopathological Liver Findings,"Rat; female, 150 mg/kg",No adverse findings
same,ALT,"Rat; female, 150 mg/kg",37 (8) IU/L
same,AST,"Rat; female, 150 mg/kg",53 (13) IU/L
same,GLDH,"Rat; female, 150 mg/kg",12 (14) IU/L
same,Histopathological Liver Findings,"Rat; female, 1000 mg/kg",No adverse findings
same,ALT,"Rat; female, 1000 mg/kg",44 (14) IU/L
same,AST,"Rat; female, 1000 mg/kg",51 (6) IU/L
same,GLDH,"Rat; female, 1000 mg/kg",6 (4) IU/L
same,Histopathological Liver Findings,"Rat; male, 50 mg/kg",No adverse findings
same,ALT,"Rat; male, 50 mg/kg",29 (6) IU/L
same,AST,"Rat; male, 50 mg/kg",53 (8) IU/L
same,GLDH,"Rat; male, 50 mg/kg",12 (8) IU/L
same,Histopathological Liver Findings,"Rat; male, 150 mg/kg",No adverse findings
same,ALT,"Rat; male, 150 mg/kg",38 (31) IU/L
same,AST,"Rat; male, 150 mg/kg",53 (11) IU/L
same,GLDH,"Rat; male, 150 mg/kg",12 (7) IU/L
same,Histopathological Liver Findings,"Rat; male, 1000 mg/kg",No adverse findings
same,ALT,"Rat; male, 1000 mg/kg",31 (7) IU/L
same,AST,"Rat; male, 1000 mg/kg",50 (11) IU/L
same,GLDH,"Rat; male, 1000 mg/kg",7 (4) IU/L
same,"adverse liver findings, chronic dose toxicity study","Rat; rats, 6-mo, up to the high dose tested of 1,000 mg/kg",no adverse liver findings
same,mean wakefulness time in people with narcolepsy,patients with narcolepsy [3],effectively increased mean wakefulness time
same,deaths or SAEs,participants; TAK-994-1001,no deaths or SAEs were reported
same,subjects discontinued due to elevated ALT,participants; of 121 participants,1
